Measured values taken from patent US4115385A, “Antibacterial 3-(5-tetrazolyl) penam compounds” (Pfizer Inc., priority 1977, dated 1978).
Converted amounts (≈) assume the structure as drawn. Read-outs that look alike come from different tables or passages of the source.

Tests used:
Staphylococcus aureus = assay: In vitro minimum inhibitory concentration (MIC) vs. Staph. aureus; assay type: cell-based; conditions: for MIC: Staphylococcus aureus
Procedure: The antibacterial penam compounds of the instant invention show activity against a wide variety of gram-positive and gram-negative bacteria. […] The broth is inoculated with the bacterial culture, and with the test antibiotic, and then it is incubated overnight. On the next day, the test is read visually. The minimum inhibitory concentration (MIC) is the lowest concentration of antibiotic which prevents turbidity, i.e., which prevents growth of the microorganism. In vitro activities of several of the penam compounds of the invention are presented later in this specification.
In Table II, the minimum inhibitory concentrations (MIC's) of compounds of formula I, wherein R^2 is hydrogen, against a strain of Streptococcus pyogenes, are reported; and in Table III, minimum inhibitory concentrations of compounds of formula I, wherein R^2 is hydrogen, against a strain of Staphylococcus aureus, are presented. Because of the tautomeric nature of such tetrazole derivatives, referred to hereinbefore,each of the preparations tested also contains some of the corresponding compound of formula II, wherein R^3 is hydrogen.

Streptococcus pyogenes = assay: In vitro minimum inhibitory concentration (MIC) vs. Strep. pyogenes; assay type: cell-based; conditions: Streptococcus pyogenes, read-out: MIC vs. Strep. pyogenes
Summary of the method: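 Broth inoculated with bacteria and test antibiotic, incubated overnight and read visually; MIC is the lowest concentration preventing turbidity. Test preparations also contain some of the corresponding tetrazole tautomer.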

[1] = Table III, two-fold serial dilution, Brain-Heart Infusion broth, overnight, read-out: MIC vs. Staph. aureus
[2] = Table II, two-fold serial dilution, Brain-Heart Infusion broth, overnight

CC1(C)S[C@@H]2[C@H](NC(=O)CN)C(=O)N2[C@H]1c1nnn[nH]1 [2-aminoacetyl]
MIC (Staphylococcus aureus; [1]): 200 µg/mL (≈ 673 µM)

CCCS(=O)(=O)N[C@@H](C(=O)N[C@@H]1C(=O)N2[C@@H]1SC(C)(C)[C@@H]2c1nn[nH]n1)c1ccccc1 [D-2-(propanesulfonamido)-2-phenylacetyl]
MIC (Staphylococcus aureus; [1]): 0.78 µg/mL (≈ 1.63 µM)

CC1(C)S[C@@H]2[C@H](NC(=O)[C@H](O)c3ccccc3)C(=O)N2[C@H]1c1nnn[nH]1 [D-2-hydroxy-2-phenylacetyl, 6-(D-2-Hydroxy-2-phenylacetamido)-2,2-dimethyl-3-(5-tetrazolyl)penam]
MIC (Staphylococcus aureus; [1]): < 0.1 µg/mL

CN(C)C=NCC(=O)N[C@@H](C(=O)NC1C(=O)N2C1SC(C)(C)C2c1nnn[nH]1)c1ccccc1 (stereo partly drawn) [6-(D-2-[2-(dimethylaminoethyleneamino)acetamido]-2-phenylacetamido-2,2-dimethyl-3-(5-tetrazolyl)penam]
MIC vs. Staph. aureus (Staphylococcus aureus; Table III, two-fold serial dilution, Brain-Heart Infusion broth, overnight): 6.25 µg/mL (≈ 12.9 µM)

CC1(C)S[C@@H]2[C@H](NC(=O)[C@@H](O)c3ccccc3)C(=O)N2[C@H]1c1nnn[nH]1 [L-2-hydroxy-2-phenylacetyl, 6-(L-2-Hydroxy-2-phenylacetamido)-2,2-dimethyl-3-(5-tetrazolyl)penam]
MIC (Staphylococcus aureus; [1]): < 0.1 µg/mL

CC1(C)S[C@@H]2[C@H](N3C(=O)[C@@H](c4ccccc4)NC3(C)C)C(=O)N2[C@H]1c1nnn[nH]1 [6-(2,2-Dimethyl-5-oxo-4-phenyl-1-imidazolidinyl)-2,2-dimethyl-3-(5-tetrazolyl)penam]
MIC (Staphylococcus aureus; Table IV, values marked *, read-out: MIC against Staph. aureus): 1.56 µg/mL (≈ 3.77 µM)

CC1(C)S[C@@H]2[C@H](NC(=O)[C@H](NS(C)(=O)=O)c3ccccc3)C(=O)N2[C@H]1c1nn[nH]n1 [D-2-(methanesulfonamido)-2-phenylacetyl, 6-(D-2-Methanesulfonamido-2-phenylacetamido)-2,2-dimethyl-3-(5-tetrazolyl)penam]
MIC (Staphylococcus aureus; [1]): 1.56 µg/mL (≈ 3.45 µM)

CC1(C)S[C@@H]2[C@H](NC(=O)C(NC(=O)CSc3ccncc3)c3ccccc3)C(=O)N2[C@H]1c1nn[nH]n1 (stereo partly shown) [6-(2-[2-(4-Pyridylthio)acetamido]-2-phenylacetamido)-2,2-dimethyl-3-(5-tetrazolyl)penam]
MIC (Staphylococcus aureus; [1]): 100 µg/mL (≈ 191 µM)

CC1(C)S[C@@H]2[C@H](NC(=O)[C@H](NC(=S)NC(=O)c3ccco3)c3ccccc3)C(=O)N2[C@H]1c1nn[nH]n1
MIC (Staphylococcus aureus; [1]): 0.78 µg/mL (≈ 1.48 µM)

CC(=N)NCC(=O)N[C@@H](C(=O)N[C@@H]1C(=O)N2[C@@H]1SC(C)(C)[C@@H]2c1nnn[nH]1)c1ccccc1
MIC (Staphylococcus aureus; [1]): 1.56 µg/mL (≈ 3.31 µM)

CC(=O)N[C@@H](C(=O)N[C@@H]1C(=O)N2[C@@H]1SC(C)(C)[C@@H]2c1nnn[nH]1)c1ccccc1 [D-2-(acetamido)-2-phenylacetyl]
MIC (Staphylococcus aureus; [1]): 0.78 µg/mL (≈ 1.88 µM)

CC1(C)S[C@@H]2[C@H](NC(=O)Cc3ccc(OCCN)cc3)C(=O)N2[C@H]1c1nn[nH]n1 [2-(4-[2-aminoethoxy]phenyl)acetyl, 6-(2-[4-(2-Aminoethoxy)phenyl]acetamido)-2,2-dimethyl-3-(5-tetrazolyl)penam]
MIC (Streptococcus pyogenes): < 0.1 µg/mL

CC1(C)S[C@@H]2[C@H](NC(=O)CNC(=O)c3ccccc3)C(=O)N2[C@H]1c1nn[nH]n1 [2-(benzamido)acetyl, 6-(2-[Benzamido]acetamido)-2,2-dimethyl-3-(5-tetrazolyl)penam]
MIC (Streptococcus pyogenes): 0.1 µg/mL (≈ 0.249 µM)

CCOC(=O)NCC(=O)N[C@@H](C(=O)N[C@@H]1C(=O)N2[C@@H]1SC(C)(C)[C@@H]2c1nnn[nH]1)c1ccccc1
MIC (Streptococcus pyogenes): < 0.1 µg/mL

CC1(C)S[C@@H]2[C@H](NC(=O)[C@@H](N)c3ccc(O)cc3)C(=O)N2[C@H]1c1nnn[nH]1 [L-2-amino-2-(p-hydroxyphenyl)acetyl]
MIC (Streptococcus pyogenes; [2]): < 0.1 µg/mL

CC1(C)S[C@@H]2[C@H](NC(=O)[C@H](N)C3CCCO3)C(=O)N2[C@H]1c1nnn[nH]1 (stereo partly drawn) [D-2-amino-2-(2-tetrahydrofuryl)acetyl]
MIC (Streptococcus pyogenes): < 0.1 µg/mL

CC1(C)S[C@@H]2[C@H](NC(=O)[C@H](NC(=O)CNC(=N)c3cc(Cl)cc(C#N)c3)c3ccccc3)C(=O)N2[C@H]1c1nnn[nH]1
MIC (Streptococcus pyogenes; [2]): 0.004 µg/mL (≈ 0.00674 µM)

CC1(C)S[C@@H]2[C@H](NC(=O)C(C(=O)O)c3ccsc3)C(=O)N2[C@H]1c1nnn[nH]1 (stereo partly shown) [2-carboxy-2-(3-thienyl)acetyl, 6-(2-Carboxy-2-[3-thienyl]acetamido)-2,2-dimethyl-3-(5-tetrazolyl)penam]
MIC (Streptococcus pyogenes): 0.1 µg/mL (≈ 0.245 µM)

CC1(C)S[C@@H]2[C@H](NC(=O)[C@H](NC(=O)CNC(=N)c3cccc(S(N)(=O)=O)c3)c3ccccc3)C(=O)N2[C@H]1c1nnn[nH]1
MIC (Streptococcus pyogenes): < 0.1 µg/mL

CC1(C)S[C@@H]2[C@H](NC(=O)[C@H](NC(=O)CNS(C)(=O)=O)c3ccccc3)C(=O)N2[C@H]1c1nn[nH]n1
MIC (Streptococcus pyogenes): < 0.1 µg/mL

CC1(C)S[C@@H]2[C@H](NC(=O)Oc3ccccc3)C(=O)N2[C@H]1c1nnn[nH]1 [phenoxycarbonyl]
MIC (Streptococcus pyogenes): < 0.1 µg/mL

CC1(C)S[C@@H]2[C@H](NC(=O)[C@H](NC(=O)CC#N)c3ccccc3)C(=O)N2[C@H]1c1nnn[nH]1 [D-2-(2-cyanoacetamido)-2-phenylacetyl]
MIC (Streptococcus pyogenes; [2]): 0.004 µg/mL (≈ 0.00908 µM)

CC1(C)S[C@@H]2[C@H](NC(=O)[C@H](NC(=O)CNC(=O)NC(=N)NCc3ccccc3)c3ccccc3)C(=O)N2[C@H]1c1nn[nH]n1
MIC (Streptococcus pyogenes): 0.1 µg/mL (≈ 0.165 µM)

Cc1onc(-c2ccccc2Cl)c1C(=O)N[C@@H]1C(=O)N2[C@@H]1SC(C)(C)[C@@H]2c1nnn[nH]1 [6-(3-[2-Chlorophenyl]-5-methyl-4-isoxazolecarboxamido)-2,2-dimethyl-3-(5-tetrazolyl)penam]
MIC (Streptococcus pyogenes; [2]): < 0.1 µg/mL

CC(=O)NC(=O)N[C@@H]1C(=O)N2[C@@H]1SC(C)(C)[C@@H]2c1nn[nH]n1 [N-acetylcarbomoyl]
MIC (Streptococcus pyogenes; [2]): 1.56 µg/mL (≈ 4.79 µM)

CCCC(=O)NCC(=O)N[C@@H](C(=O)N[C@@H]1C(=O)N2[C@@H]1SC(C)(C)[C@@H]2c1nnn[nH]1)c1ccccc1
MIC (Streptococcus pyogenes): < 0.1 µg/mL

COc1ccc(NC(=O)N[C@@H](C(=O)N[C@@H]2C(=O)N3[C@@H]2SC(C)(C)[C@@H]3c2nnn[nH]2)c2ccccc2)cc1
MIC (Streptococcus pyogenes): < 0.1 µg/mL

CC1(C)S[C@@H]2[C@H](NC(=O)CSCc3ccccc3)C(=O)N2[C@H]1c1nnn[nH]1 [2-(benzylthio)acetyl]
MIC (Streptococcus pyogenes; [2]): 0.2 µg/mL (≈ 0.494 µM)

COc1ccc(CC(=O)N[C@@H](C(=O)N[C@@H]2C(=O)N3[C@@H]2SC(C)(C)[C@@H]3c2nnn[nH]2)c2ccccc2)cc1
MIC (Streptococcus pyogenes): 0.1 µg/mL (≈ 0.192 µM)

CC(=O)NC(=S)N[C@@H](C(=O)N[C@@H]1C(=O)N2[C@@H]1SC(C)(C)[C@@H]2c1nn[nH]n1)c1ccccc1
MIC (Streptococcus pyogenes; [2]): 3.2 µg/mL (≈ 6.74 µM)

CC1(C)S[C@@H]2[C@H](NC(=O)C(=O)c3ccccc3)C(=O)N2[C@H]1c1nnn[nH]1 [phenylglyoxyloyl]
MIC (Streptococcus pyogenes): < 0.1 µg/mL

CC1(C)S[C@@H]2[C@H](NC(=O)[C@H](NC(=O)CNC(=N)c3nc4ccccc4[nH]3)c3ccccc3)C(=O)N2[C@H]1c1nnn[nH]1
MIC (Streptococcus pyogenes): < 0.1 µg/mL

CC1(C)S[C@@H]2[C@H](NC(=O)[C@H](N)c3cccc(N)c3)C(=O)N2[C@H]1c1nnn[nH]1 [D-2-amino-(3-aminophenyl)acetyl, 6-(D-2-Amino-2-[3-aminophenyl]acetamido)-2,2-dimethyl-3-(5-tetrazolyl)penam]
MIC (Streptococcus pyogenes): < 0.1 µg/mL

CC1(C)S[C@@H]2[C@H](NC(=O)[C@H](NC(=O)CCNC(=O)c3ccco3)c3ccccc3)C(=O)N2[C@H]1c1nnn[nH]1
MIC (Streptococcus pyogenes): < 0.1 µg/mL

CC1(C)S[C@@H]2[C@H](NC(=O)C(C(=O)O)c3ccccc3)C(=O)N2[C@H]1c1nnn[nH]1 (stereo partly shown) [2-carboxy-2-phenylacetyl, 6-(2-Carboxy-2-phenylacetamido)-2,2-dimethyl-3-(5-tetrazolyl)penam]
MIC (Streptococcus pyogenes; [2]): 0.002 µg/mL (≈ 0.00497 µM)

CC1(C)S[C@@H]2[C@H](NC(=O)[C@H](NC(=O)CCNC(=O)Nc3ccccc3)c3ccccc3)C(=O)N2[C@H]1c1nnn[nH]1
MIC (Streptococcus pyogenes): < 0.1 µg/mL

CC1(C)S[C@@H]2[C@H](NC(=O)C(Cc3ccccc3)NC(=N)c3ccncc3)C(=O)N2[C@H]1c1nnn[nH]1 (stereo partly shown)
MIC (Streptococcus pyogenes; [2]): 0.2 µg/mL (≈ 0.407 µM)
